This test addresses Transthyretin (Homo sapiens) (UniProt P02766). Kind of test: Induction of stability of human recombinant interleukin 2 assessed as binding affinity of drug-conjugated rIL2 to human TTR in PBS buffer at pH 7.4 measured after 20 mins fluorescence polarization assay.

Each structure is given as a SMILES string. pKd: −log10 of the molar value.

Consider `Cc1n[nH]c(C)c1CCCOc1cc(OCCCc2cn(CCOCCOCCOCCOCCNC(=O)C3CCC(CN4C(=O)C=CC4=O)CC3)nn2)cc(C(=O)O)c1` (stereo unspecified), for which the pKd is 6.07.

The values above are taken from BindingDB's records for doi:10.1021/acs.jmedchem.1c01426 (University of The Pacific, 2021).
